The values below come from ChEMBL document CHEMBL1201862, “PubChem BioAssay data set” (2004).

Assay [1] has as its target T1, Cytochrome P450 3A4 (Homo sapiens, UniProt P08684). As to conditions: Potency.
Assay [2] in a line: Luminescence Cell-Based Dose Response HTS to Identify Inhibitors of 5'UTR Stem-Loop Driven Prion Protein mRNA Translation in H4 Neuroglioblastoma Cells. [Related pubchem assays: 1827 (Project Summary), 1813 (Primary HTS)]. Type of assay: functional.
Assay [3] can be described thus: alpha-synuclein stem-loop luciferase translation blockers – H4 neuroglioma cells, luminescence, confirmation (AID 1988). The format is functional, cell-based.
The nature of assay [4]: luciferase reporter signal suppression in cells – H4 neuroglioma cells, luminescence, dose response (AID 1990). The format is functional, cell-based.
Assay [5] concerns the target T2, Fatty acid synthase (Homo sapiens, UniProt P49327). The assay can be described thus: inhibition of human FAS-TE enzyme activity – biochemical, endpoint fluorescence intensity, uHTS hits, dose response (AID 624327).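 Also: fluorescence from hydrolysis of an O-methyl fluorescein acyl ester substrate by the enzyme.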 The format is functional.
In assay [6] the target is T2, Fatty acid synthase. The assay can be described thus: inhibition of human FAS-TE enzyme activity – biochemical, kinetic fluorescence intensity, dose response (AID 624326).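 Also: rate of fluorescence rise from hydrolysis of a fluorogenic O-methyl fluorescein ester substrate.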 The format is functional.
The next assay deals with Nonstructural protein 1 (Influenza A virus, UniProt Q194T2). The format is functional, Influenza A virus (A/California/07/2009(H1N1)).
Nonstructural protein 1, sequence (Q194T2 whole entry): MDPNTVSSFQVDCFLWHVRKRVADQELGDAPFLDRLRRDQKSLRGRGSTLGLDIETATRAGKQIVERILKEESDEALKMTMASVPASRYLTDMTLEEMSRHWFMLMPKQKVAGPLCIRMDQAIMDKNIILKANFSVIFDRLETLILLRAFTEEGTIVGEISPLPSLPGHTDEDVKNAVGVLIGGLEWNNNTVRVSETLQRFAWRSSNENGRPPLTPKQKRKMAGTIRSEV
The nature of assay [7]: Luminescence Cell-Based Dose Retest to Confirm Inhibitors of Cancer Stem Cells. [Related pubchem assays (depositor defined):AID2717, AID2721]. The format is functional. The settings on record: Homo sapiens.
A further assay deals with SN12K1. The assay can be described thus: cells. Type of assay: functional. The settings on record: Homo sapiens.
Another assay has as its system P388. The assay can be described thus: cells. As to conditions: Mus musculus. Type of assay: functional.
In the next assay the test system is P388/ADR. The assay can be described thus: cells. As to conditions: Mus musculus. Type of assay: functional.
Assay [8] in a line: Luminescence Cell-Based Dose Confirmation HTS to Identify Inhibitors of Platelet Dense Granule Release. [Related pubchem assays: 1663 (Primary HTS), 1678 (Summary of Project)]. The format is functional.
Assay [9] deals with Luciferin 4-monooxygenase (Photinus pyralis, UniProt P08659). The assay can be described thus: inhibition of purified Photinus pyralis luciferase – biochemical, luminescence, dose response (AID 1891).
Luciferin 4-monooxygenase, sequence (P08659 whole entry): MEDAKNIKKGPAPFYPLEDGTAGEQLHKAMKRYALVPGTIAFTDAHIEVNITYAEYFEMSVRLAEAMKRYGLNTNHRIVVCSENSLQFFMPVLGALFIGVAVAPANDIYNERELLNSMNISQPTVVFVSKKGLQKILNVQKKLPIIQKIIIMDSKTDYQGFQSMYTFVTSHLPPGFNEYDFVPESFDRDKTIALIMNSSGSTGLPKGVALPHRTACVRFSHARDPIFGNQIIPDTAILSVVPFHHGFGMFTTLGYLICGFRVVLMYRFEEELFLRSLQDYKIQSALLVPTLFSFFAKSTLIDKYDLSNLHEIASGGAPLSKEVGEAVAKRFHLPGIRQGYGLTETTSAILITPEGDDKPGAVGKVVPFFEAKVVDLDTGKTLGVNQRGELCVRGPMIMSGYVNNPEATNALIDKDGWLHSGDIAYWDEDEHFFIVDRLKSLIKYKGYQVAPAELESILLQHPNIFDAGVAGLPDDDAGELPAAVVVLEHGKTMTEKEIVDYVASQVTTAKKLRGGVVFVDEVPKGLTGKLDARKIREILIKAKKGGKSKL
Assay [10] is described as follows: loss of viability in HepG2 cells – cell-based, CellTiter-Glo, cherry-picked, cytotoxicity control for Shn3 inhibitor project, dose response (AID 624134). Type of assay: functional. In general terms: ATP-based viability assays read luminescence as a measure of living cells.
A short description of assay [11]: reduction of Shn3 3'UTR-driven luciferase in osteoblasts – cell-based, Clone20 osteoblasts, firefly luciferase, cherry-picked, dose response (AID 624132).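 Also: firefly luciferase luminescence from reporter carrying the Shn3 3'UTR in osteoblasts.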 The format is functional.
The nature of assay [12]: non-specific 3'UTR reporter inhibition in Clone20-Shn3RL – cell-based, Renilla luciferase, cherry-picked, counter-screen for Shn3 inhibitor project, dose response (AID 624133). The format is functional.
A further assay relates to INS1. The assay can be described thus: INS-1E survival protection against cytokine death – cell-based, luminescence, retest, dose response (AID 449756).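 Also: cell death triggered by IL-1 beta plus TNF-alpha plus IFN-gamma mixture; protective hits raise ATP signal compared with cytokine alone wells.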 Type of assay: functional. The settings on record: Rattus norvegicus.
Assay [13] addresses T1, Cytochrome P450 3A4.

Counter-ions that a name gives are not always drawn. Activity calls are given as the source filed them.

T1 sequence (P08684 whole entry): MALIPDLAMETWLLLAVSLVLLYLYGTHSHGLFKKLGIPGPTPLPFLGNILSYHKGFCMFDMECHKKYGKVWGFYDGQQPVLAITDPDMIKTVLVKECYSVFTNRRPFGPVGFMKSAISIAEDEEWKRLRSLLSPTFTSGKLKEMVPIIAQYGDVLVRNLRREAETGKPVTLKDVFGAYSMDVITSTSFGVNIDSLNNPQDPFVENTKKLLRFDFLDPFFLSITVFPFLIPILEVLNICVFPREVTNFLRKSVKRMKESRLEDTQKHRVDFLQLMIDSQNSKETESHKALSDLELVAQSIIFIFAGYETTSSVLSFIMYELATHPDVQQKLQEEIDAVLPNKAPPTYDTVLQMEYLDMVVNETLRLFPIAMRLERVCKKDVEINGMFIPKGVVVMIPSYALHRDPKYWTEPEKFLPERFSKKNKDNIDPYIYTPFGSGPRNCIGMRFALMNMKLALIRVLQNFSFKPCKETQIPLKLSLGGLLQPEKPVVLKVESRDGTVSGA
T2 sequence (P49327 whole entry): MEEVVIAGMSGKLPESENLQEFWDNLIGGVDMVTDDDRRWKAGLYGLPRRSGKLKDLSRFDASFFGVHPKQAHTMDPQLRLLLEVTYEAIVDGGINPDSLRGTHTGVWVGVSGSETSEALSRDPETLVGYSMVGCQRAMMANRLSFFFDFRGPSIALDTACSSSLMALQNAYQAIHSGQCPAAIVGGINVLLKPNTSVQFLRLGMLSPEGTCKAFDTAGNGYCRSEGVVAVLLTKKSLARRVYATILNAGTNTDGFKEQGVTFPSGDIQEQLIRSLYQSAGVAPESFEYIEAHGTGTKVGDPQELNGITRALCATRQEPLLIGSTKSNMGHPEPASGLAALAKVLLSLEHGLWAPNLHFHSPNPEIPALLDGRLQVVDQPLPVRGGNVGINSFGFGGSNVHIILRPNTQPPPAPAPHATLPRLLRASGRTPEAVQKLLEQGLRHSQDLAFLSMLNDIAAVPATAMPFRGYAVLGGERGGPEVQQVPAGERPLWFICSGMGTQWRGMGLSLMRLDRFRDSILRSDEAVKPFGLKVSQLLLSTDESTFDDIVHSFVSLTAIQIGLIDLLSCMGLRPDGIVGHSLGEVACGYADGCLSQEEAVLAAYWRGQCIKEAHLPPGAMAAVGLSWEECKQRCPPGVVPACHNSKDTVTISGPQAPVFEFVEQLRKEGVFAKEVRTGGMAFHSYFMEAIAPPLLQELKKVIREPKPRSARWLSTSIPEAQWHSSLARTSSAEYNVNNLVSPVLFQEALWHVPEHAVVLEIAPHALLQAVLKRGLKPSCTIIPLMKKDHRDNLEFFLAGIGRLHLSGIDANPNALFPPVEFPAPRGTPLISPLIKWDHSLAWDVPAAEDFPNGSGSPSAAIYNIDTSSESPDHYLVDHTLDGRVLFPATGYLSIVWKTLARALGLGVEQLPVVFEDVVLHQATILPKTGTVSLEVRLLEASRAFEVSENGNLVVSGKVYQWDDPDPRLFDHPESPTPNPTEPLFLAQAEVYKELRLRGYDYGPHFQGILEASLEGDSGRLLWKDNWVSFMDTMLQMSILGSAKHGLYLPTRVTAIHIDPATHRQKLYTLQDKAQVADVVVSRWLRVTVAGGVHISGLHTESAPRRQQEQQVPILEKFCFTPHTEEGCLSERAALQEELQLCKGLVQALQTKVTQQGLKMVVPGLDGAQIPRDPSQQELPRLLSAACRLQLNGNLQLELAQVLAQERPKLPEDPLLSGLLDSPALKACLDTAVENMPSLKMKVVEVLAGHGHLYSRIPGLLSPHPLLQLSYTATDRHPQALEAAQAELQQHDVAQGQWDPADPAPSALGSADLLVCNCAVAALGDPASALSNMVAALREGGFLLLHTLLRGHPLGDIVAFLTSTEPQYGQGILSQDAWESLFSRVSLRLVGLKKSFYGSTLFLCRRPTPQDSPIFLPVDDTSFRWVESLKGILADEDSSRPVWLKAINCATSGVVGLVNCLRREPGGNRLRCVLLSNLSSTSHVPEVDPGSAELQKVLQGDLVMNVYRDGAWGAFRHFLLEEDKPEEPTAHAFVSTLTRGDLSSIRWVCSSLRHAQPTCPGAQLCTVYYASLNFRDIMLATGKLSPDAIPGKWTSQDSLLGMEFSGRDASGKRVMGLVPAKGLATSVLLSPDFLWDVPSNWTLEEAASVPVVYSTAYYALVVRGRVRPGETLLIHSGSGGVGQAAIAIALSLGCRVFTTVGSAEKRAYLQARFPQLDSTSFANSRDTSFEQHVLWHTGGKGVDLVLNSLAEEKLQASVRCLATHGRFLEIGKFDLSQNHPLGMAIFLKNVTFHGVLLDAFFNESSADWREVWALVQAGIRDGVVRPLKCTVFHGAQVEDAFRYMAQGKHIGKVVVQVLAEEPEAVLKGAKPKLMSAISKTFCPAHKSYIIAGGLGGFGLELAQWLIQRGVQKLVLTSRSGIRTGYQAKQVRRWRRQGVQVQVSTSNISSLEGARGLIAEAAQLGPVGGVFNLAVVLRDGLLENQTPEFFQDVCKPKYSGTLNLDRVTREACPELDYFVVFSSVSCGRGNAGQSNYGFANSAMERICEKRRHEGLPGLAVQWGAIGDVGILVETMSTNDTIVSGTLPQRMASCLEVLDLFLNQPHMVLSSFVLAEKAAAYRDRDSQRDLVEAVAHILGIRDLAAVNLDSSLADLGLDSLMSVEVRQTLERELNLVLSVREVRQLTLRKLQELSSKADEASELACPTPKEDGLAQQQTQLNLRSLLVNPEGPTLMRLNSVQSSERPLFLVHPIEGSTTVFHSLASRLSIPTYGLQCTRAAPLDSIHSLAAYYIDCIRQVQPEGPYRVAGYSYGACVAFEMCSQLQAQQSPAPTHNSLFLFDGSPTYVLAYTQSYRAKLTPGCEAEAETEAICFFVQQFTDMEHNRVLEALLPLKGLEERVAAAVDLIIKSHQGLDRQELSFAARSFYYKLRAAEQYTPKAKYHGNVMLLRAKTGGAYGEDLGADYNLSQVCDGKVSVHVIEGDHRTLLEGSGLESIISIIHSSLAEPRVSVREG

With `Oc1cc(Cl)ccc1Cl`, at Cytochrome P450 3A4 [1], the AC50 (as a rule, the concentration at which the activity in the assay is half-maximal) is 31.6 µM (inconclusive).

For the compound `CC(C)(C)c1ccc(OCCON2C(=O)CCC2=O)c(Cl)c1`, the 50% effective concentration (EC50) (as a rule, the concentration giving half of the maximal effect) was 13.6 µM (active) in assay [2], 18.3 µM (active) in assay [3] and > 120 µM (not active) in [4].

As for `O=C(CCNC(=O)c1ccc([N+](=O)[O-])cc1)NCCc1ccccc1`, the IC50 – broadly, the concentration at which inhibition is half-maximal – at Fatty acid synthase [5] was 10.3 µM (active); on Fatty acid synthase [6], 11.2 µM (active).

`COc1ccc(Oc2c(C)oc3cc(OC(=O)N4CCOCC4)ccc3c2=O)cc1`: the EC50 in assay [2] is > 120 µM (not active); in [3] it was 59.2 µM (active); in assay [4], > 120 µM (not active).

For the compound `O=C1[C@@H]2Cc3c([nH]c4ccccc34)C(c3ccccc3)N2C(=O)CN1C1CCN(Cc2ccccc2)CC1` (stereo partly drawn), at Nonstructural protein 1, the half-maximal inhibitory concentration (IC50) is > 100 µM (active).

In the case of `CCc1cccc(NC(=O)COC(=O)c2cc([N+](=O)[O-])ccc2N2CCOCC2)c1`, the IC50 is 0.29 µM (active) on Fatty acid synthase [5] and 0.393 µM (active) on Fatty acid synthase [6].

Consider `CCOC(=O)c1[nH]c(C)c(C(=O)OCc2ccccc2F)c1C`, for which, in assay [7], the AC50 is 0.633 µM (active).

As for `CCCCCCCCCCCC[S+](C)C`, the GI50 (usually the concentration at which growth is held to half of that of the control) in the assay on SN12K1 is 5.33 µM (inactive); in the assay on P388, 0.236 µM (active); in the assay on P388/ADR, 27.8 µM (inactive).

Take `CCCCc1nccc2c(C)c3[nH]c4ccccc4c3cc12`: the GI50 was 2.14 µM (inactive) in the assay with SN12K1, 1.77 µM (inactive) in the assay with P388 and 2 µM (inactive) with P388/ADR.

On to `COc1cc2cc(C(=O)N3CCN(Cc4ccc5c(c4)OCO5)CC3)[nH]c2cc1OC`, for which the concentration giving a half-maximal response (EC50) in assay [2] was > 120 µM (not active); in [8], > 112 µM (not active); in [3] it was > 120 µM (not active); in assay [4], > 120 µM (not active); in assay [9], > 112 µM (not active).

For `COc1cc(-c2ccc3oc(-c4cccc(C)c4)c(C#CC4(O)CCCCC4)c3c2)cc(OC)c1OC`, the half-maximal activity concentration (AC50) in [7] is 8.67 µM (active).

As to `O=c1[nH]c(=O)n([C@H]2CCCO2)cc1F`, the results for the GI50 in the assay on SN12K1, in the assay with P388 and in the assay with P388/ADR were 369 µM (inactive), 24.3 µM (inactive) and 37.7 µM (inactive), respectively.

As for `CC(C)Oc1ccc(C2CC(=O)N(Nc3ccc([N+](=O)[O-])cc3[N+](=O)[O-])C2=O)cc1` (stereo not drawn), the IC50 at Fatty acid synthase [5] was 0.577 µM (active); at Fatty acid synthase [6] it was 0.846 µM (active).

As for `COc1ccc(NC(=O)Cn2nnc(-c3ccccc3NS(=O)(=O)c3ccccc3)n2)cc1`, the AC50 in [10] is 9.81 µM (active); in assay [11] it was 0.485 µM (active); in [12] it was 16.1 µM (active).

With `Cc1cc(N2CCCC2=O)cc(C)c1S(=O)(=O)NCCOc1ccc(C(C)(C)C)cc1`, the AC50 in assay [10] is 51.4 µM (active); in the assay on INS1 it was 2.58 µM (active); in assay [11], 1.15 µM (active); in assay [12] it was 2.36 µM (active).

With `O=C(/C=C/c1c[nH]c2ccccc12)c1cccc2ccccc12`, in assay [7], the AC50 is 2.92 µM (active).

With `O=S1(=O)C(=C(c2ccccc2)c2ccccc2)S(=O)(=O)c2ccccc21`, the GI50 with SN12K1 was 28.2 µM (inactive); in the assay on P388 it was > 31.6 µM (inactive); with P388/ADR, > 100 µM (inactive).

Consider `COc1ccccc1OCC(O)Cn1c(=N)n(Cc2ccccc2)c2ccccc21` (stereo not drawn), for which the AC50 in assay [10] was 22.1 µM (active); in assay [11], 4.01 µM (active); in assay [12], 10.7 µM (active).

Consider `CN(C)CC1CC/C(=C\c2ccc(Cl)cc2)C1=O` (stereo not drawn), for which the GI50 in the assay on SN12K1 is 2.21 µM (inactive); in the assay on P388, 0.31 µM (active); in the assay on P388/ADR, 0.509 µM (active).

Regarding `O=C(COC(=O)c1cc([N+](=O)[O-])ccc1N1CCOCC1)NCc1ccccc1`, the IC50 on Fatty acid synthase [5] was 0.841 µM (active); on Fatty acid synthase [6], 0.683 µM (active).

For the compound `CCCCCCCN1C(Nc2ccccc2)=NC[C@@H]1Cc1ccccc1`, the values for the concentration at half-maximal activity (AC50) in [10], in assay [11] and in assay [12] were 23 µM (active), 4.82 µM (active) and 6.34 µM (active), respectively.

Take `CNNCc1ccc(C(=O)NC(C)C)cc1` [PROCARBAZINE HYDROCHLORIDE]: the figures for the GI50 in the assay on SN12K1, with P388 and with P388/ADR were > 456 µM (inactive), > 500 µM (inactive) and > 485 µM (inactive), respectively.

For the compound `COc1ccc(-c2cc(-c3cccnc3)c(C#N)c(N)n2)cc1`, the EC50 was 12.7 µM (active) in assay [2], 23 µM (active) in assay [3] and 22 µM (active) in assay [4].

Regarding `CCCCCCn1c(SCC(C)C)nc2c1c(=O)[nH]c(=O)n2C`, the results for the EC50 in assay [2], in assay [3] and in [4] were > 120 µM (not active), 18.8 µM (active) and 15.4 µM (active), respectively.

For `Nc1[nH]c(N=NC(=O)c2ccccc2O)c2ccccc12`, the half-inhibitory concentration (IC50) on Nonstructural protein 1 is 24.5 µM (active).

In the case of `CC(C)(/N=N/C(C)(C)C(=N)N)C(=N)N`, the AC50 on Cytochrome P450 3A4 [1] was 39.8 µM (inconclusive).

With `COC1=C[C@H]2[C@H]3Cc4ccc(OC)c(O)c4[C@@]2(CCN3C)CC1=O`, the AC50 on Cytochrome P450 3A4 [1] is 31.6 µM (inconclusive).

With `O=C(/C=C/c1ccccc1)c1ccc(O)cc1` [4'-HYDROXYCHALCONE], on Cytochrome P450 3A4 [1], the AC50 is 39.8 µM (inconclusive).

As to `Cc1ccc(S(=O)(=O)Oc2cc(-c3ccccc3)nc3ccccc23)cc1`, the GI50 is 1.61 µM (inactive) in the assay on SN12K1, 1.15 µM (inactive) with P388 and 1.91 µM (inactive) in the assay on P388/ADR.

As to `COC(=O)C(C(=O)OC)C1O[C@@]23COCCC2(C)C3c2ccccc21` (stereo partly drawn), the concentration at half-maximal activity (AC50) at Cytochrome P450 3A4 [1] was 3.16 µM (inconclusive).

As for `COc1ccc2c(c1)CCc1c(CO)c(COC(=O)NC(C)C)n(C)c1-2`, the GI50 in the assay on SN12K1 was 3.32 µM (inactive); in the assay with P388 it was 1.17 µM (inactive); in the assay on P388/ADR, 2.2 µM (inactive).

Take `O=C(COC(=O)c1cc([N+](=O)[O-])ccc1N1CCOCC1)Nc1c(Cl)cccc1Cl`: the 50% inhibitory concentration (IC50) at Fatty acid synthase [5] is 7.85 µM (active); on Fatty acid synthase [6], 6.21 µM (active).

`CN(C)C(=O)N(CCCl)N=O`: the GI50 in the assay on SN12K1, in the assay on P388 and with P388/ADR was > 100 µM (inactive) throughout.

On to `Cc1c2ccccc2c(C)c2c1ccc1ccccc12`, for which, on Cytochrome P450 3A4 [1], the concentration at half-maximal activity (AC50) is 12.6 µM (inconclusive).

Regarding `Cn1c(N)c(C(=O)COC(=O)c2cc(C3CC3)nc3ccccc23)c(=O)n(Cc2ccccc2)c1=O`, the AC50 on Cytochrome P450 3A4 [1] was 15.8 µM (inconclusive).

Consider `Cc1ccc([N+](=O)[O-])cc1NC(=O)CCSc1ccc(Cl)cc1`, for which the results for the half-maximal inhibitory concentration (IC50) on Fatty acid synthase [5] and at Fatty acid synthase [6] were 6.23 µM (active) and 7.75 µM (active), respectively.

In the case of `COc1ccccc1/C=C1\SC(NNC(=O)c2cccc(Br)c2)=NC1=O`, the AC50 in assay [7] was 2.09 µM (active).

Take `O=C1C=CC(=O)c2c(O)cccc21` [JUGLONE]: the concentration at half-maximal activity (AC50) at Cytochrome P450 3A4 [1] is 39.8 µM (inconclusive).

As for `CCOC(=O)CSC1=C(C#N)C(c2sccc2C)CC(=O)N1` (stereo not drawn), the AC50 on Cytochrome P450 3A4 [13] is 15.8 µM (inconclusive); in [7], 0.722 µM (active).

Regarding `Cc1ccc(-c2nnc(COC(=O)c3cc(O)nc4ccccc34)o2)cc1`, the IC50 at Fatty acid synthase [5] is 10.4 µM (active); at Fatty acid synthase [6], 9.54 µM (active).

For the compound `CC(C)(C)c1cc(CSC(S)=NC2CCS(=O)(=O)C2)c(Br)c(C(C)(C)C)c1` (stereo not drawn), the AC50 in assay [7] was 3.19 µM (active).
